Reference: patent US12611443B2, “Methods and compositions related to therapeutic peptides for cancer therapy” (THE UNIVERSITY OF CHICAGO, priority 2018, dated 2026)

Assays:
MDA-MB-231 cells [1] = assay: Cell viability of MDA-MB-231 cells treated with purified ELANE or ECP; assay type: cell-based, human; conditions: MDA-MB-231
Description: (§1) In vitro cell viability assays. […] Luminescence was measured using a Victor X3 luminometer (PerkinElmer).

[2] = test system: human/murine cancer cells; assay: In vitro cell viability of cancer cells (calcein-AM, CASP3, ANXA5); assay type: cell-based; conditions: ELANE 3 μg/ml
Text: Cell lines. The ovarian cancer cell lines—CAOV3, OVCAR3, OVCAR4, OVCAR5, A2780, A2780/CP70, HeyA8, TykNu, SKOV3, ID8, and ID8p53-/- were a gift from Dr. Ernst Lengyel, University of Chicago. The breast cancer cell lines—MDA-MB-231, MDA-MB-231.BM1, MCF-7, M6C, E0771, and E0771.LMB were a gift from Dr. Marsha Rosner, University of Chicago. The colon carcinoma cell line RKO, glioblastoma cancer cell line T98G, osteosarcoma cell lines U-2OS and Saos-2, and the hepatocellular carcinoma cell line HepG2 were a gift from Dr. Kay McLeod, University of Chicago. The lung cancer cell line NCI-H552 was a gift from Dr. Stephanie Huang, University of Chicago, and A549 and LLC1 cells were purchased from ATTC. The melanoma cell lines—B16F10, Mel888, Mel1106, and SK-MEL-28 cells were a gift from Dr. Thomas Gajewski, University of Chicago. The pancreatic cancer cell line PANC1 was a gift from Dr. Yamuna Krishnan, University of Chicago. The leukemia cell line K562 was a gift from Dr. Amittha Wickrema, University of Chicago.
The prostate cancer cell lines—CWR22Rv1, LAPC4, and LNCaP were a gift from Dr. Donald Vander Griend, University of Chicago. The neuroblastoma cell lines—SK-N-BE(2) and NBL-WN cells were a gift from Dr. Lucy Godley, University of Chicago.
Neutrophil media collections. Freshly isolated human or murine neutrophils were plated in serum-free DMEM for 24 h. Conditioned media was collected, spun at 500×g for 5 min, and media protein levels were determined with a Bradford assay (Biorad).
PMN media manipulations. For boiling, PMN media was boiled at 95° C. for 5 min and spun at 15,000×g for 10 min to remove precipitated proteins. For dialysis, PMN media was placed into a Slide-a-Lyzer™ cassette (3.5 kDa cutoff, ThermoFisher Scientific) and dialyzed against 2×4L of PBS at 4° C. for 4 h. For PMSF-inactivation, PMN media was treated with PMSF (1 mM, Sigma) or A1AT (42 nM, Athens Research & Technology) and incubated at room temperature for up to 2 h. Residual PMSF was eliminated with a PD-10 desalting column (GE Healthcare Life). Inhibition of ELANE catalytic activity was confirmed using a chromogenic substrate activity assay (see below). For serum-spiking experiments, human, mouse, or fetal bovine serum (1% or 10%) was added to PMN media prior to or after exposing cancer cells. For immune-depletion studies, ELANE or ECP were immunoprecipitated using anti-ELANE (N2C3, GeneTx) or anti-ECP (MB S2535165, MyBioSource) coupled to Pierce™ Protein A/G Magnetic Beads (ThermoFisher Scientific).
as §1

MDA-MB-231 cells [3] = assay: Resistance to ELANE, repeated exposure in vitro; assay type: cell-based, human; conditions: 7 exposures, ˜90% death/exposure
Text: To explore whether cancer cells could acquire resistance to ELANE, a combination of in vitro and in vivo approaches were used.

CD95 = CD95 cleavage in cancer cells by western blotting; assay type: cell-based
Description: FIGS. 1A-1K. ELANE cleaves CD95 to selectively kill cancer cells. (A): Heatmap summary of ELANE's effects on survival, stress, and apoptosis pathways in cancer cells and healthy cells. (B-C): Cancer cells were treated with ELANE (100 nM) and CD95 cleavage was assessed by western blotting using anti-N-terminal (B) or anti-C-terminal antibodies (C). *, lower molecular weight CD95 fragment. (D): Cancer cells or non-cancer cells were transduced to overexpress CD95 proteins, and effects on ELANE-mediated apoptosis were quantified by ANXAS at 30 min. n=2/group. See FIG. 1I for transduction and CD95 over-expression. (E): Cleavage of recombinant human CD95 N-terminal (aa 1-173) or C-terminal (aa 212-335) proteins by ELANE was assessed by SDS-PAGE and Coomassie blue staining. (F): Bands from (E) were digested with trypsin and analyzed by mass spectrometry to identify putative ELANE cleavage sites (i.e., peptides with non-tryptic ends). Major non-tryptic peptides were quantified by ion chromatograms. (G): Schematic of ELANE cleavage sites in CD95. […] (H): Cleavage of recombinant peptides corresponding to aa 214-231 and aa 317-335 in CD95 by ELANE was monitored by mass spectrometry. […] Effect of Dynasore on cancer cell killing capability of ELANE (measured by calcein-AM). n=6/group. […]

[4] = test system: survival, stress, and apoptosis pathways in cancer cells; assay: Killing program in cancer cells (western blot, mitochondrial ROS); assay type: cell-based; conditions: all 6 cancer cell lines tested
Description: (§2) Western Blot Analysis. Cells were lysed with 1% SDS containing protease and phosphatase inhibitors (Sigma), and protein was quantified with the BCA Protein Assay Kit (Pierce). Proteins (10-20 μg) were resolved on 10%, 12.5%, 15%, or 20% SDS-PAGE gels depending on the target protein, transferred to PVDF membranes (Millipore), blocked with 5% BSA (Sigma) in 0.1% TBS/Tween-20 at RT for 2 hrs, stained with primary and secondary antibodies, and visualized using the ECL detection kit (Biorad) and a LI-COR imager. Antibodies—Antibodies against pERK (4370), ERK (4695), pNFκB (3033), NFκB (8242), pJNK (4668), JNK (9252), CASP3 (9662), PARP (9542), H2AX (2595), TUBB (2125) were from Cell Signaling Technology. Antibodies against γH2AX (05-636-I, Millipore), ELANE (68672, Abcam), N-terminal CD95 (3070R, BioVision), and C-terminal CD95 (60196, Proteintech).
(§3) Mitochondrial ROS measurements. Cells were treated with various doses of ELANE for 30 min, washed, labeled with the CM-H2DCFDA dye (ThermoFisher Scientific, 10 μM) for 30 min at 37° C., and fluorescence was quantified by flow cytometry.

[5] = test system: survival, stress, and apoptosis pathways in normal or non-cancer cells; assay: Killing program in normal or non-cancer cells; assay type: cell-based
Description: as §2, §3

“ELANE: neutrophil elastase, a serine protease released by human PMNs” was tested, and the “cell viability, purified protein” value (MDA-MB-231 cells [1]) was “killed MDA-MB-231 cells in a dose-dependent manner”, the “apoptosis in cancer cell lines” value [2] was “effectively induced apoptosis in all cancer cell lines tested” and the “acquired resistance after repeated exposure in vitro” value (MDA-MB-231 cells [3]) was “did not confer resistance”. For the same substance, the “loss of full-length CD95 after cleavage” value (CD95) was “did not result in loss of full-length CD95”, the “CD95 cleavage in cancer cells” value (CD95; ELANE 100 nM) was “cleaved CD95 in all cancer cells tested” and the “DNA damage (γH2AX)” value [4] was “induced DNA damage”. The “mitochondrial ROS (MT ROS)” value [4] was “increased MT ROS”, the “pro-apoptotic pathways (cCASP3 and cPARP)” value [4] was “activated pro-apoptotic pathways” and the “survival pathways (phosphorylation of ERK, NFκB, or JNK)” value [4] was “suppressed at least one survival pathway”. The “killing program in normal or non-cancer cells” value [5] was “did not induce this program in all normal or non-cancer cells tested”.
